Results on six compounds are retold here after patent US20240245085A1, “FLAVORING COMPOSITIONS FOR TASTE IMPROVEMENT” (SYMRISE AG, priority 2021, published 2024).

“Also recorded” adds a separate entry of the source.

Type in all cases: in vivo
One experiment has as its system quinine (10 mg/kg). In words: Bitter-duo test (paired comparison, trained panel, nose-clips) with quinine. The method, then: (§1) A trained panel was given different samples with the bitter tasting substances caffeine (500 mg/kg), quinine (10 mg/kg) and naringin (100 mg/kg). Caffeine is the bitter principle of coffee and coffee-type beverages, quinine is used as food additive to flavor tonics or energy drinks and naringin is the bitter principle of grapefruit juice. Each test includes a different amount of bitter-masking substances or mixtures thereof. During the tests, the panellists wear nose-clips to exclude any olfactory impressions. These tests are referred to as bitter-duo tests.
In a first trial, above mentioned bitter samples were mixed with 10 mg/kg eriodictyol-7-O-glucoside at a purity of >95%.
In a second test, the bitter agents were mixed with 50 mg/kg eriocitrin at a purity of >95% and the bitter-masking effect evaluated by the panel.
Another trial was set-up using samples with 10 mg/kg quinine and 50 mg/kg eriodictyol (ED) alone or with an inventive flavoring composition containing eriodictyol-7-O-glucoside (EDMG) and neoeriocitrin (NEC) eriocitrin (EC). […] The same effect was observed when using neoeriocitrin instead of eriocitrin. The wt.-% are based on the dry weight of the flavoring composition.
Other solvents than methanol, mixtures of solvents and different CV ratios can be used in order to achieve the same purification than with methanol as described herein. The column volume ration (CV) is the ratio of column bed volume and volume of solution flowing through column. The product was evaluated by a sensory panel (n=20).

Another experiment concerns vegan patty. Nature of the experiment: Blind tasting of vegan patties by a panel (sensory profile). The method, then:
A vegan patty has been produced containing the following ingredients: water, leguminose protein isolate, sun flower oil, leguminose protein concentrate, coconut oil, methylcellulose, fiber, salt, starch, lactic acid and sodium diacetate. Water, thickener and starch are mixed with water, pH is adjusted, proteins are added next followed by fibre and oil ingredients. Finally, a taste masking ingredient according to Table 4 is added. The ingredients are thoroughly mixed and the dough is formed to patties. The patties where baked in an oven at 200° C. After cooling the patties, patties were sliced and samples were coded for a blind tasting with a panel.

Experiment [1] deals with caffeine (500 mg/kg). In words: Pairwise bitter intensity rating (scale 1-100) in water with 500 mg/kg caffeine. The following applies: for bitter masking of caffeine solution (in words): 50 mg/kg, 500 mg/kg caffeine; for Bitter intensity [0-100] of base: taste modulator 50 mg/kg in water with 500 mg/kg caffeine. The method, then:
The said mixture can be compared with further taste modulating compounds to impart taste modulating sensory effects. […] A masking mixture comprising three parts hesperetin, two parts naringenin and two parts of the inventive citrus hydrolysate (55 wt.-% ED, 11.1 wt.-% EDMG, 1.5 wt.-% EC) was tested with 50 mg/kg dosage against naringenin, hesperetin and homoeriodictyol (No. 1-3, Table 5). The compounds and the mixture were all solved in water with added 500 mg/kg caffeine as bitter agent. The panelists were asked to rate the bitter intensity of each sample of one sample pair on a scale of 1-100. […] Said mixtures can be obtained by mixing the inventive citrus hydrolysate with hydrolysates from orange (yielding hesperetin), grapefruit or bergamot (yielding naringenin) or bitter orange and lime among other citrus fruits.

The subject of experiment [2] is caffeine (500 mg/kg). In words: Bitter-duo test (paired comparison, trained panel, nose-clips) with caffeine. On the procedure:
as §1, with “tests. In a first trial, above mentioned bitter samples were mixed with 10 mg/kg eriodictyol-7-O-glucoside at a purity of >95%. […] In a second test, the bitter agents were mixed with 50 mg/kg eriocitrin at a purity of >95% and the bitter-masking effect evaluated by the panel.” for “tests.”

The test system of another experiment is naringin (100 mg/kg). Nature of the experiment: Bitter-duo test (paired comparison, trained panel, nose-clips) with naringin. On the procedure: as §1, with “tests. In a first trial, above mentioned bitter samples were mixed with 10 mg/kg eriodictyol-7-O-glucoside at a purity of >95%. […] In a second test, the bitter agents were mixed with 50 mg/kg eriocitrin at a purity of >95% and the bitter-masking effect evaluated by the panel.” for “tests.”

Experiment [3] can be described thus: Own taste of eriodictyol-7-O-glucoside at higher concentration. As to conditions: concentration above 50 mg/kg.
[4] abbreviates: Table 2, dosage 10 mg/kg in table (text: 50 mg/kg), 20 panelists.
The mark [5] stands for this setting: Table 1, dosage 10 mg/kg, 20 panellists.

As to `O=C1C[C@@H](c2ccc(O)c(O)c2)Oc2cc(O)cc(O)c21` [ED, Eriodictyol], in the experiment on quinine (10 mg/kg) (Table 3, dosage 50 mg/kg, 10 mg/kg quinine, 18-20 panellists), the “Bitter masking activity (%)” value was −31.0%. In addition, the “taste improving and bitter masking property (in words)” value with vegan patty was “improved the taste profile”.
`COc1ccc([C@@H]2CC(=O)c3c(O)cc(O)cc3O2)cc1O` [Hesperetin]: in the experiment on caffeine (500 mg/kg) [1], the “bitter masking of caffeine solution (in words)” value was “not potent bitter masking compounds” and the “Bitter intensity [0-100] of base” value is 39.
With `COc1cc([C@@H]2CC(=O)c3c(O)cc(O)cc3O2)ccc1O` [Homoeriodictyol], the “taste improving and bitter masking property (in words)” value in the experiment on vegan patty is given as “improved the taste profile; also recorded: reduced the bitterness more than eriodictyol”. Besides, the “Bitter intensity [0-100] of base” value with caffeine (500 mg/kg) [1] is given as 37.5.
For `O=C1C[C@@H](c2ccc(O)cc2)Oc2cc(O)cc(O)c21` [Naringenin], in the experiment on caffeine (500 mg/kg) [1], the “bitter masking of caffeine solution (in words)” value is listed as “not potent bitter masking compounds” and the “Bitter intensity [0-100] of base” value is recorded as 36.4.
As to `C[C@@H]1O[C@@H](OC[C@H]2O[C@@H](Oc3cc(O)c4c(c3)O[C@H](c3ccc(O)c(O)c3)CC4=O)[C@H](O)[C@@H](O)[C@@H]2O)[C@H](O)[C@H](O)[C@H]1O` [eriocitrin, Eriocitrin], the “bitter masking effect (in words)” value is “not significant” in the experiment with caffeine (500 mg/kg) [2] (50 mg/kg, purity >95%); “not significant” in the experiment on quinine (10 mg/kg) (50 mg/kg, purity >95%, quinine 10 mg/kg); “not significant” in the experiment on naringin (100 mg/kg) (50 mg/kg, purity >95%). Moreover, the “Bitter masking activity (%)” value in the experiment on caffeine (500 mg/kg) [2] (setting [4]) was 5.6%; in the experiment with quinine (10 mg/kg) (Table 2, dosage 10 mg/kg in table (text: 50 mg/kg), quinine 10 mg/kg, 20 panelists), −1.6%; in the experiment on naringin (100 mg/kg) (setting [4]) it was 0.8%.
Turning to `O=C1C[C@@H](c2ccc(O)c(O)c2)Oc2cc(O[C@@H]3O[C@H](CO)[C@@H](O)[C@H](O)[C@H]3O)cc(O)c21` [eriodictyol-7-O-glucoside], the “bitter-reducing effect (in words)” value with caffeine (500 mg/kg) [2] (10 mg/kg, purity >95%) is recorded as “not significant”; in the experiment with quinine (10 mg/kg) (10 mg/kg, purity >95%, quinine 10 mg/kg) it was “not significant”; in the experiment on naringin (100 mg/kg) (10 mg/kg, purity >95%), “not significant”. In addition, the “Bitter masking activity (%)” value in the experiment on caffeine (500 mg/kg) [2] (setting [5]) is given as −1.94%; with quinine (10 mg/kg) (Table 1, dosage 10 mg/kg, quinine 10 mg/kg, 20 panellists), −7.42%; in the experiment with naringin (100 mg/kg) (setting [5]), −2.59%. The own taste notes result in experiment [3] is “bitter notes”.
